Measured values taken from PubChem BioAssay AID192 (DTP/NCI, 2004).
Where “and” joins values, the source holds several entries; their conditions need not be identical. Equal values may be shown once. Toxic doses and inconclusive results are not listed. How the source made its calls: active means survival T/C of 150% or more; inactive means T/C below 125% in these data.

Tested on: BDF1 mice, B16 melanoma ip, median survival T/C
Test: NCI In Vivo Anticancer Drug Screen. Data for tumor model B16 Melanoma (intraperitoneal) in B6D2F1 (BDF1) mice
Details: endpoint: median survival time, higher = longer survival
Method in brief: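 Mice with transplantable tumors; drug vs vehicle groups; endpoint survival or tumor size; value = T/C.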

[1] = dose: 6.25 mg/kg/injection, schedule: Q01DX009 (ip), vehicle: saline
[2] = dose: 12.5 mg/kg/injection, schedule: Q01DX009 (ip), vehicle: saline
[3] = dose: 12.5 mg/kg/injection, schedule: Q01DX009 (ip), vehicle: Klucel (hydroxypropylcellulose) (HPC)
[4] = dose: 25.0 mg/kg/injection, schedule: Q01DX009 (ip), vehicle: Klucel (hydroxypropylcellulose) (HPC)
[5] = dose: 50.0 mg/kg/injection, schedule: Q01DX009 (ip), vehicle: Klucel (hydroxypropylcellulose) (HPC)
[6] = dose: 50.0 mg/kg/injection, schedule: Q01DX009 (ip), vehicle: saline with Tween-80
[7] = dose: 100.0 mg/kg/injection, schedule: Q01DX009 (ip), vehicle: saline with Tween-80
[8] = dose: 100.0 mg/kg/injection, schedule: Q04DX003 (ip), vehicle: saline with Tween-80
[9] = dose: 200.0 mg/kg/injection, schedule: Q04DX003 (ip), vehicle: saline with Tween-80
[10] = dose: 25.0 mg/kg/injection, schedule: Q01DX009 (ip), vehicle: saline with Tween-80

Measured: T/C

N#CCCc1ccccc1
inactive: dose: 3.13 mg/kg/injection, schedule: Q01DX009 (ip), vehicle: saline 100 % of control | [1] 97 % of control | [2] 100 % of control

CN(Cc1cnc2nc(N)nc(N)c2n1)c1c(Cl)cc(C(=O)NC(CCC(=O)O)C(=O)O)cc1Cl (stereo not given)
inactive: dose: 3.12 mg/kg/injection, schedule: Q01DX009 (ip), vehicle: Klucel (hydroxypropylcellulose) (HPC) 116 % of control | dose: 6.25 mg/kg/injection, schedule: Q01DX009 (ip), vehicle: Klucel (hydroxypropylcellulose) (HPC) 111 % of control | [3] 116 % of control | dose: 17.5 mg/kg/injection, schedule: Q01DX011 (ip), vehicle: saline 99 % of control | [4] 109 % of control | dose: 35.0 mg/kg/injection, schedule: Q01DX011 (ip), vehicle: saline 107 % of control | [5] 111 % of control

CC(C)C1CC2CCC3C(C)(C(=O)O)CCCC3(C)C2CC1CO (stereo not given)
inactive: [6] 99 % of control | dose: 50.0 mg/kg/injection, schedule: Q04DX003 (ip), vehicle: saline with Tween-80 100 % of control | [7] 96 % of control | [8] 97 % of control | dose: 200.0 mg/kg/injection, schedule: Q01DX009 (ip), vehicle: saline with Tween-80 94 % of control | [9] 90 % of control

Cc1nc(SCc2ccc(Cl)cc2)[nH]c(=O)c1CCO
inactive: [8] 100 % of control | [9] 102 % of control | dose: 400.0 mg/kg/injection, schedule: Q04DX003 (ip), vehicle: saline with Tween-80 92 % of control

CC(C)C(=O)[O][Sn]([CH3])([CH3])[CH3]
inactive: dose: 0.19 mg/kg/injection, schedule: Q01DX009 (ip), vehicle: saline 107 % of control | dose: 0.38 mg/kg/injection, schedule: Q01DX009 (ip), vehicle: saline 105 % of control | dose: 0.75 mg/kg/injection, schedule: Q01DX009 (ip), vehicle: saline 100 % of control

CC(CN(C)C)CN1c2ccccc2Sc2ccc(C(F)(F)F)cc21 (stereo not given)
inactive: dose: 0.78 mg/kg/injection, schedule: Q01DX009 (ip), vehicle: saline 109 % of control | dose: 1.56 mg/kg/injection, schedule: Q01DX009 (ip), vehicle: saline 105 % of control | dose: 3.12 mg/kg/injection, schedule: Q01DX009 (ip), vehicle: saline 116 % of control | [1] 103 % of control | [2] 103 % of control

CC(C)=CCC(OC(=O)C=C(C)C)C1=CC(=O)c2c(O)ccc(O)c2C1=O (stereo not given)
inactive: dose: 0.25 mg/kg/injection, schedule: Q01DX009 (ip), vehicle: Klucel (hydroxypropylcellulose) (HPC) 99 % of control | dose: 0.5 mg/kg/injection, schedule: Q01DX009 (ip), vehicle: Klucel (hydroxypropylcellulose) (HPC) 92 % of control

COc1ccc2c(c1O)-c1cccc3c1[C@@H](C2)N(CCCl)CC3
inactive: dose: 4.0 mg/kg/injection, schedule: Q01DX009 (ip), vehicle: saline 91 % of control and 116 % of control | dose: 8.0 mg/kg/injection, schedule: Q01DX009 (ip), vehicle: saline 97 % of control and 120 % of control | dose: 16.0 mg/kg/injection, schedule: Q01DX009 (ip), vehicle: saline 97 % of control and 111 % of control

C/C(Cc1ccccc1)=N\[N+](C)(C)C
inactive: dose: 75.0 mg/kg/injection, schedule: Q04DX003 (ip), vehicle: saline 109 % of control | dose: 150.0 mg/kg/injection, schedule: Q04DX003 (ip), vehicle: saline 104 % of control

COc1ccc2c(ccc3oc([N+](=O)[O-])cc32)c1
inactive: [3] 115 % of control | [4] 118 % of control | [5] 123 % of control

C#CC(C)OCC1CNC(=S)O1 (stereo not given)
inactive: [10] 100 % of control | [6] 89 % of control | [7] 97 % of control | dose: 400.0 mg/kg/injection, schedule: Q01DX009 (ip), vehicle: saline with Tween-80 91 % of control

C/C=C/c1cc2c(c(=O)o1)C(=O)[C@@H](O)[C@H](C)O2
inactive: dose: 12.5 mg/kg/injection, schedule: Q01DX009 (ip), vehicle: saline with Tween-80 95 % of control | [10] 90 % of control | [6] 95 % of control | [7] 110 % of control
